From US5888993A, “Vanadium compounds in the treatment of elevated blood sugar levels” (The University of British Columbia, priority 1997, dated 1999)
Where “and” joins values, the source holds several entries; their conditions need not be identical. Identical values can stand only once.

How the values were obtained:
STZ-diabetic rats = assay: Comparison of BMOV and ETHYLBMOV, plasma glucose and insulin in STZ-diabetic rats; assay type: in vivo, rat; conditions: 0.6 mmol kg^-1, one oral gavage, 24 hour period
Description: Animal studies were conducted in STZ-diabetic rats comparing doses of 0.6 mmol kg^-1 for VO(ma)2 (BMOV) and VO(ema)2 (ETHYLVMOV). FIGS. 8 and 9 respectively show plasma glucose and plasma insulin values recorded over 24 hour periods after one oral gavage of a water solution of either BMOV or ETHYLBMOV, in order to compare their efficacies.

diabetic rats [1] = assay: BMOV in drinking water, STZ diabetic rats; assay type: in vivo, rat
[2] = log p (partition coefficient); assay type: physicochemical
SHR rats = assay: Blood pressure reduction by BMOV, spontaneously hypertensive rats; assay type: in vivo, rat; conditions: SHRO, 0.75 mg/ml in drinking water
Description: (§1) 11 SHR and 12 WKY rats (all male) were procured at 4 weeks of age from Charles River, Canada. The animals were divided into four experimental groups: SHR (untreated n=5), SHRO (BMOV treated n=6), WKY (untreated n=8) and WKYO (BMOV treated n=4). Chronic BMOV treatment was commenced on the SHRO and WKYO groups at 5 weeks of age. The rats were given BMOV (0.75 mg/ml) ad libitum in the drinking water.
(§2) Once at week 5 and then starting at week 8, weekly measurements of blood pressure were done on all groups for the next 3 weeks. Blood samples were also collected via the tail vein during the weeks mentioned above. These were centrifuged and plasma was collected for subsequent glucose and insulin analyses. Chronic blood pressure measurements were done on conscious rats, using the tail cuff method without external preheating. Initial experiments to validate the tail cuff method by comparing the readings obtained with it to those obtained by direct arterial cannulation were conducted.

WKY rats = assay: Blood pressure study with BMOV, Wistar Kyoto rats; assay type: in vivo, rat; conditions: WKYO, 0.75 mg/ml in drinking water
Description: as §1, §2

normal rats = assay: Prolonged administration in drinking water (77 days), normal (control) rats; assay type: in vivo, rat
Description: (§3) BMOV was administered to normal and diabetic rats in drinking water.
(§4) The study was composed of 4 groups of animals Control (8 animals), Control-Treated (11 animals), Diabetic (11 animals) and Diabetic-Treated (12 animals). The diabetic state was induced by injecting STZ at 60 mg/kg dissolved in 0.9% NaCl I.V. via the tail vein to anaesthetized rats. The two control groups were injected with 0.9% NaCl I.V. through the tail vein. The diabetic state was determined with a "Testape"™ test at 3 days post-injection and later confirmed with a glucometer test. Blood glucose and insulin assays were carried out post-injection over the course of the study. Treatment according to the invention was started 1 week after determination of the diabetic state.
(§5) Treated diabetic animals received between 0.3 and 0.5 mmol/kg of the compound/day in drinking water over a 77 day period. Treated control animals received a slightly lower dose (0.2-0.3 mmol/day) over the same period. The concentration of BMOV in the drinking water was varied between 1.6 and 3.2 mM. The reason for the differing doses in the two sets of animals is that the two groups drank different amounts of water daily; it was difficult to attain the same dose in both groups.
(§6) 1. As indicated above, 4 groups of animals were studied, but the diabetic-treated group was sub-divided to diabetic-treated responders (8 animals) and diabetic-treated non-responders (4 animals). Curve 1 is the control group, curve 2 the control-treated group, curve 3 the diabetic group, curve 4 is the diabetic-treated responders and curve 5 is the diabetic-treated non-responders. […] Treatment began with a […] solution of the compound. […] On day 24, the concentration was increased to 2.37 mM (0.7 mg/ml).

diabetic rats [3] = assay: Blood glucose response after i.p. injection in STZ diabetic rats; assay type: in vivo, rat
Description: Initial experiments were carried out to determine pharmacological effectiveness of BMOV. Using male rats, made diabetic by the injection of streptoxoticin (STZ) at a dose of 60 mg/kg i.v., BMOV was initially given by intraperitoneal (i.p.) injection as a suspension in 1% methyl cellulose.
Two animals developed hypoglycemia.

diabetic rats [4] = assay: BMOV single oral gavage, STZ diabetic rats; assay type: in vivo, rat; conditions: 160 μmol/kg
diabetic rats [5] = assay: Prolonged administration in drinking water (77 days), STZ diabetic rats; assay type: in vivo, rat
Description: as §3, §4, §5, §6

[6] = control treated, week 6, mean ± S.E.M.
[7] = diabetic-treated non-responders, pretreatment, mean ± S.E.M.
[8] = diabetic-treated non-responders, week 6, mean ± S.E.M.
[9] = diabetic-treated responders, pretreatment, mean ± S.E.M.
[10] = diabetic-treated responders, week 6, mean ± S.E.M.

Cc1occc(=O)c1[O-].Cc1occc(=O)c1[O-].[O]=[V+2] [BMOV, Bis(maltolato)oxovanadium(IV)]
plasma glucose, difference BMOV vs ETHYLBMOV (STZ-diabetic rats): statistically insignificant | plasma insulin, difference BMOV vs ETHYLBMOV (STZ-diabetic rats): statistically insignificant | fluid intake (diabetic rats [1]; 0.46-0.92 mmol/kg): decreased to normal | blood glucose reduction (diabetic rats [1]; 0.46-0.92 mmol/kg (150-300 mg/kg), four diabetic rats): reduced blood glucose in four diabetic rats into the normal range | log p [2]: 0.12 | development of high blood pressure, in words (SHR rats): prevent the development of high blood pressure | decrease in systolic blood pressure (SHR rats; tail cuff): 25-30 mmHg | systolic blood pressure, normotensive controls (WKY rats): without having any effect | insulin vs control, in words (normal rats; control treated): significantly lower | fluid intake (normal rats; control treated, day 77 (control 62.7±7.4)): 33.6 ± 7.2 mL | Cholesterol (normal rats; control treated, pretreatment (day before treatment started), mean ± S.E.M.): 1.64 ± 0.08 mmol/L | Triglyceride (normal rats; control treated, pretreatment, mean ± S.E.M.): 1.21 ± 0.14 mmol/L | Cholesterol (normal rats; [6]): 1.60 ± 0.06 mmol/L | Triglyceride (normal rats; [6]): 2.04 ± 0.22 mmol/L | food intake (normal rats; control-treated (control 29±0.1)): 25.5±0.3 grams per day | weight gain (normal rats; control-treated, 77 days, drinking water (control 250 g)): 200 g | fluid consumption vs all other groups, in words (normal rats; control-treated, by day 63): significant difference | weight gain, in words (normal rats; control-treated, from day 56): significantly decreased weight gain | food consumption vs all other groups, in words (normal rats; control-treated, from day 63 on): significant difference | animals that developed hypoglycemia (diabetic rats [3]; 15 mg/kg i.p.): Two animals | rats responding with a decrease in blood glucose (diabetic rats [3]; 15 mg/kg i.p. (0.05 mmol/kg), suspension in 1% methyl cellulose): Nine out of the twelve | rats responding with a decrease in blood glucose (diabetic rats [4]): Six out of six | time of peak fall in blood glucose (diabetic rats [4]): 5 h | time for return of blood glucose to diabetic levels (diabetic rats [4]; usually): ≤ 12 h | weight, diabetic-treated groups vs all other groups (diabetic rats [5]; both diabetic-treated groups, by day 7): significant difference | plasma triglyceride and cholesterol, in words (diabetic rats [5]; diabetic animals): restored to control values | fluid intake (diabetic rats [5]; diabetic treated (diabetic about 275 ml/rat)): about 60 ml/rat | food intake (diabetic rats [5]; diabetic-treated (from greater than 50 grams per day)): about 30 grams per day | weight, non-responders vs other 4 groups (diabetic rats [5]; diabetic-treated non-responders, by day 28): significantly different from the other 4 groups | Cholesterol (diabetic rats [5]; [7]): 1.51 ± 0.07 mmol/L | Triglyceride (diabetic rats [5]; [7]): 1.85 ± 0.41 mmol/L | Cholesterol (diabetic rats [5]; [8]): 1.48 ± 0.09 mmol/L | Triglyceride (diabetic rats [5]; [8]): 2.31 ± 0.19 mmol/L | hypoglycemia (diabetic rats [5]; diabetic-treated responders, before day 18, treatment withheld): developed in several animals | blood glucose, in words (diabetic rats [5]; diabetic-treated responders, by day 14): euglycemic | weight, responders vs diabetic group (diabetic rats [5]; diabetic-treated responders, by day 28): no longer a significant difference | Cholesterol (diabetic rats [5]; [9]): 1.67 ± 0.10 mmol/L | Triglyceride (diabetic rats [5]; [9]): 1.10 ± 0.09 mmol/L | Cholesterol (diabetic rats [5]; [10]): 1.58 ± 0.11 mmol/L | Triglyceride (diabetic rats [5]; [10]): 1.70 ± 0.18 mmol/L | weight gain (diabetic rats [5]; diabetic-treated, 77 days, drinking water): 140 g | food consumption vs control, in words (diabetic rats [5]; diabetic-treated, at any time): no significant difference | Insulin values (diabetic rats [5]; diabetic-treated, day 28 of BMOV study): 22.0 ± 1.6 μU/ml | food intake (diabetic rats [5]; diabetic-treated, day 77): 28±1.6 grams per day | animals responding (blood glucose lowered) (diabetic rats [5]; diabetic-treated, drinking water): 8 out of the 12 and eight of the twelve | fluid consumption vs control, in words (diabetic rats [5]; diabetic-treated, throughout): no significant difference | blood glucose (diabetic rats [5]; non-responders (four of the twelve rats), on any given day): 6 to 30 mM | blood glucose, in words (diabetic rats [5]; responders, by day 24): normal blood glucose | blood glucose (diabetic rats [5]; responders, from day 7 onwards (from 20 mM)): less than 10 mM | cataracts (diabetic rats [5]; treated animals not controlled by the drug, end of 77 days): One of the four | cataracts (diabetic rats [5]; treated diabetic rats controlled by the drug, end of 77 days (untreated diabetic 5/11)): 0/8 | water solubility, in words (Water solubility): quite water-soluble | water solubility (Water solubility; water): about 7 mM and ~2 mg/mL
